Data from US20240109924A1, “IP4-4,6 SUBSTITUTED DERIVATIVE COMPOUNDS” (SANIFIT THERAPEUTICS, S.A., priority 2021, published 2024).
pEC50: −log10 of the molar value.

How the values were obtained:
[1] = In vitro inhibition of calcium phosphate crystallization in human plasma (spectrophotometric assay); format: biochemical; conditions: 0-100 μM, 1.5 mM phosphate, 12.5 mM calcium, pH 7.4, absorbance 550 nm, slope 6-24 min, read-out: Relative Potency
Method: The in vitro efficacy of the IP4-4,6 substituted derivatives (e.g., Compounds 1 to 53) of the invention on the inhibition of calcium phosphate crystallization in human plasma samples was evaluated according to a spectrophotometric assay previously described in the art (Ferrer M, et al., Sci Rep 2017; 7:6858, doi:10.1038/s41598-017-07203-x).
A 96-well plate was employed. Plasma was spiked (1 volume of the IP4-4,6 substituted derivatives of the invention per 19 volumes of plasma) with increasing concentrations of the derivatives in the range of 0-100 μM. Plasma was then centrifuged at 10,000 g at rt and subsequently mixed with a mixture of 5 mM hydrogen phosphate and 41.67 mM calcium to attain final concentrations of 1.5 mM phosphate and 12.5 mM calcium, respectively. All reagent solutions were filtered, and pH adjusted to 7.4.
Crystallization of calcium phosphate was monitored spectrophotometrically for 30 min at rt by measuring the increments in absorbance at 550 nm using the Biotek Powerwave XS Microplate spectrophotometer (BioTek Instruments, Inc., Winooski, VT, US). The plate was incubated at rt in an orbital shaker and absorbance measured every 3 min.
Plasma crystallization was assessed based on slope measurement in the linear range between 6 and 24 min from plots of increase in absorbance versus logarithm of time. The efficacy of different myo-inositol phosphates derivatives in preventing in vitro formation of calcium phosphate crystals was assessed in human plasma samples using the slopes obtained between 6- and 24-min. Inhibition of crystallization was measured by comparing the slopes of the control sample (blank plasma) with those of samples containing the inhibitor as shown below: […]

tissue calcification = assay: In vivo tissue calcification (calcium content by ICP-OES) in vitamin D3-induced limb ischemia rat model; conditions: SD rats, vitamin D3 150,000 IU/kg s.c. D1-D3, 30 mg/kg s.c. daily D1-D5, sacrifice D5; for Inhibition of calcification (%) Femoral: femoral arteries; for Inhibition of calcification (%) Kidney: right kidney
Method: (§1) The effects of compounds 1, 6, 9, 14, 18, 31, and 39 over blood perfusion and tissue calcification after the inception of limb ischemia were tested using a rat model for a duration of 5 days. Limb ischemia was induced to all groups from D1 to D3 excepting the sham group, to which no ischemia was induced. The animals were administered placebo and active agent formulations from D1 to D5. Observations were taken at several points during the treatment from D0 to D5. All animals were weighed every day before treatment. Seventy-two male Sprague Dawley (SD) rats (Envigo Corp., Huntingdon, GB) weighing approximately 150-200 g were used. The rats were fed with a […]® Rod14-H diet ([…] GmbH, Soest, DE). The rats were divided in 9 groups, 8 animals per group, as follows: • Group 1-Control (Sham) • Group 2-Physiological saline solution • Group 3-Compound 1 • Group 4-Compound 6 • Group 5-Compound 9 • Group 6-Compound 14 • Group 7-Compound 18 • Group 8-Compound 31 • Group 9-Compound 39 Limb ischemia was induced in the rats of groups 2-9 by subcutaneous administration of 150,000 IU/kg vitamin D3 (cholecalciferol, Duphafral D3 1000; Zoetis Inc., Parsippany, NJ, US) in physiological saline solution (2 mL/kg) every day during D1 to D3. The rats of group 1 were not administered vitamin D3. The rats in groups 1 and 2 were administered 2 mL/kg of physiological saline solution daily from D1 to D5 via subcutaneous route. The animals in groups 3-9 were administered subcutaneously 30 mg/kg of compounds 1, 6, 9, 14, 18, 31, and 39, respectively, in physiological saline solution (2 mL/kg), every day from D1 to D5. All rats of groups 1-9 were sacrificed on D5 30 minutes after dosing for determining their Ca baseline values. The animals were anesthetized by isoflurane inhalation. The whole aorta, carotids, femoral arteries, heart, and right kidney of the subjects were collected for calcium content measurement. The tissues were lyophilized for 48-72 h and weighed. The lyophilized tissues were then digested using a 1:1 HNO3:HClO4 mixture in a dry bath incubator for 2-4 h at 180° C. The digested tissues were subsequently diluted using ultra-pure MilliQ® water (MilliporeSigma (Merck KGaA), Burlington, MA, US) to a final volume of 5 mL (i.e., for femoral arteries and carotids) of 10 mL (i.e., for heart, kidneys, and aorta). Calcium content was quantified via inductively coupled plasma optical emission spectrometry (ICP-OES) using an Optima 7300 DV ICP-OES System spectrometer (PerkinElmer, Inc., Waltham, MA, US) according to the manufacturer's instructions. Average blood perfusion recovery compared to vehicle and sham were also calculated. Recovery for sham was 100%. Blood perfusion recovery calculated was using the following equation: 100-((BP sham-BP new drug)/(BP sham-BP vehicle)*100).

blood perfusion = assay: In vivo blood perfusion (laser doppler perfusion imaging) in vitamin D3-induced limb ischemia rat model; conditions: average blood perfusion recovery vs vehicle and sham (sham 100%), SD rats, 30 mg/kg s.c. daily D1-D5
Method: as §1, with “to D5. Limb functional and ischemia status were evaluated by using a laser doppler perfusion imaging apparatus PeriCam PSI Normal Resolution (Perimed AB, Järfälla, SE) in all groups at D0 and D5. The perfusion difference and perfusion ratio were calculated by comparing the baseline and either D0 or D5 readings for each group. In addition, the blood perfusion ratio of each treatment group (i.e., groups 2 to 9) to sham group was also calculated. All rats” for “to D5. All rats”

pEC50 [1]	SMILES	Inhibition of calcification (%) Aorta (tissue calcification)	Inhibition of calcification (%) Carotid (tissue calcification)	Inhibition of calcification (%) Femoral (tissue calcification)	Inhibition of calcification (%) Heart (tissue calcification)	Inhibition of calcification (%) Kidney (tissue calcification)	BP recovery (%) (blood perfusion)
≥ 5.30	O=P([O-])([O-])O[C@@H]1[C@@H](OCCCCCO)[C@H](OP(=O)([O-])[O-])[C@H](OP(=O)([O-])[O-])[C@H](OP(=O)([O-])[O-])[C@H]1OCCCCCO.[Na+].[Na+].[Na+].[Na+].[Na+].[Na+].[Na+].[Na+] [Compound 6, 4,6-O-bis(5-hydroxypentyl)-myo-inositol-1,2,3,5-tetrakis(phosphate) octasodium salt]	Over (Average inhibition percentage over or under 25% inhibition of calcification.)	Under (Average inhibition percentage over or under 25% inhibition of calcification.)	Over (Average inhibition percentage over or under 25% inhibition of calcification.)	Over (Average inhibition percentage over or under 25% inhibition of calcification.)	Over (Average inhibition percentage over or under 25% inhibition of calcification.)	Over (Average blood perfusion recovery over or under 25%.)
≥ 5.30	O=C([O-])CCn1cc(CO[C@@H]2[C@@H](OP(=O)([O-])[O-])[C@H](OCc3cn(CCC(=O)[O-])nn3)[C@@H](OP(=O)([O-])[O-])[C@@H](OP(=O)([O-])[O-])[C@H]2OP(=O)([O-])[O-])nn1.[Na+].[Na+].[Na+].[Na+].[Na+].[Na+].[Na+].[Na+].[Na+].[Na+] [Compound 31, 4,6-O-bis((1-(2-carboxyethyl)-1H-1,2,3-triazol-4-yl)methyl)-myo-inositol-1,2,3,5-tetrakis(phosphate) decasodium salt]	Over (Average inhibition percentage over or under 25% inhibition of calcification.)	Under (Average inhibition percentage over or under 25% inhibition of calcification.)	Over (Average inhibition percentage over or under 25% inhibition of calcification.)	Over (Average inhibition percentage over or under 25% inhibition of calcification.)	Over (Average inhibition percentage over or under 25% inhibition of calcification.)	Over (Average blood perfusion recovery over or under 25%.)
≥ 5.30	COCCCCCO[C@@H]1[C@@H](OP(=O)([O-])[O-])[C@H](OCCCCCOC)[C@@H](OP(=O)([O-])[O-])[C@@H](OP(=O)([O-])[O-])[C@H]1OP(=O)([O-])[O-].[Na+].[Na+].[Na+].[Na+].[Na+].[Na+].[Na+].[Na+] [Compound 9, 4,6-O-bis(5-methoxypentyl)-myo-inositol-1,2,3,5-tetrakis(phosphate) octasodium salt]	Under (Average inhibition percentage over or under 25% inhibition of calcification.)	Under (Average inhibition percentage over or under 25% inhibition of calcification.)	Over (Average inhibition percentage over or under 25% inhibition of calcification.)	Over (Average inhibition percentage over or under 25% inhibition of calcification.)	Over (Average inhibition percentage over or under 25% inhibition of calcification.)	Over (Average blood perfusion recovery over or under 25%.)
≥ 5.30	CCCCCO[C@@H]1[C@@H](OP(=O)([O-])[O-])[C@H](OCCCCC)[C@@H](OP(=O)([O-])[O-])[C@@H](OP(=O)([O-])[O-])[C@H]1OP(=O)([O-])[O-].[Na+].[Na+].[Na+].[Na+].[Na+].[Na+].[Na+].[Na+] [Compound 1, 4,6-O-dipentyl-myo-inositol-1,2,3,5-tetrakis(phosphate) octasodium salt]	Over (Average inhibition percentage over or under 25% inhibition of calcification.)	Under (Average inhibition percentage over or under 25% inhibition of calcification.)	Over (Average inhibition percentage over or under 25% inhibition of calcification.)	Over (Average inhibition percentage over or under 25% inhibition of calcification.)	Over (Average inhibition percentage over or under 25% inhibition of calcification.)	Under (Average blood perfusion recovery over or under 25%.)
